Patent publication US11078189B2, “Pharmaceutical compounds” (REVIRAL LIMITED, priority 2017, dated 2021)

Assays:
RSV A2 VR-1540 = assay: RSV plaque reduction assay; type: cell-based; settings: human respiratory syncytial virus; Strain A2; n = 1; HEp-2 cells
Method: HEp-2 cells (ATCC, CCL23) were passaged in flasks and seeded in 96-well plates in DMEM containing antibiotics and supplemented with 10% FBS. During inoculation and subsequent incubation, cells were cultured in DMEM containing 3% FBS. 100 plaque forming unit (PFU)/well of RSV (RSV A2 VR-1540) was mixed with ten serial dilutions of compound. Subsequently, 100 μL of the virus/compound mixtures was added to confluent HEp-2 cell monolayers. The cells and virus/compound mixtures were incubated at 35° C. in a humidified 5% CO2 incubator for 1 day.
Cells were washed twice with PBS before adding 50% v/v EtOH/MeOH, and then stored at −20° C. On the day of the staining, fixative was first removed from the plates. Plates were washed 3× with PBS. A pre-titrated amount of the primary antibody was added in 60 μL PBS/2% milk powder, and plates incubated for 1 h at […]. The plates were washed 3× with PBS/0.05% Tween20 before addition of goat anti-mouse horse radish peroxidase in 60 μL PBS/2% milk powder, and incubated for 1 h at rt. Following three wash steps with PBS/0.05% Tween20, 60 μL ready-to-use TrueBlue was added and plates were incubated at rt for 10-15 min before adding MilliQ water. Plates were washed once with water, incubated for 30-60 min and after removal of water, air-dried in the dark.
Plates were scanned and analyzed using the Immunospot S6 UV analyzer, which is equipped with BioSpot analysis software for counting immunostained plaques (virospots). Plaque counts were used to calculate % infection relative to the mean of the spot count (SC) in the virus control wells for RSV. IC50/IC90 values were calculated as 50% or 90% reduction in signal, respectively, by interpolation of inhibition curves fitted with a 4-parameter nonlinear regression with a variable slope in GraphPad 5.0 (Prism).

[1] = target: T1, RSV fusion (pCDNA3.1_A2_F in HEK 293T cells) (Human respiratory syncytial virus A, UniProt P03420); assay: RSV fusion assay; type: cell-based
T1 construct: expressed in transfected cells; host or cells: HEK 293T (ECACC 12022001)
Method: HEK 293T ((ECACC 12022001) cells were cultured in T75 culture flasks in Dulbecco's medium (DMEM) containing 10% Foetal Bovine serum (FBS), 50 units per mL Penicillin and 50 μg/mL Streptomycin and warmed to 37° C. prior to use. The cells were passaged by first washing briefly with 5 mL Phosphate buffered saline (PBS), followed by addition of 2 mL of Trypsin Ethylenediaminetetraacetic acid (EDTA) to detach the cells. Once cells had detached from the flask, 8 mL media was then added to and the cells dispersed via pipetting against the bottom of the flask.
The cells were counted and diluted to 3×10^5 cells/ml in fresh media. Two T75 flasks were each seeded with 15.6 mL diluted cells, cells were also subcultured at a ratio of between 1:2 and 1:10, to continue the stock. The flasks were then incubated for 24 h at 37° C. and 5% CO2.
The plasmid DNA (for pFR-Luc and pcDNA3. 1_Gal4/NFKB) to be transfected into the HEK 293T cells was first prepared in serum free media (Opti-MEM, Invitrogen), containing the transfection reagent FuGENE® 6 (Promega). Serum free media was placed in a 1.5 mL eppendorf tube then the FuGENE 6 was added into the media. The tube was vortexed for 1 s before being incubated at RT for 5 min. 7.79 ng of both pFR_luc and pCDNA3.1_A2_F plasmid DNA were added to tube 1 and 7.79 ng of pCDNA3.1_GAL4-NF-κB plasmid to tube 2. The tubes were vortexed for 1 second and then incubated at room temperature for 15 min. Each transfection mixture was then added into the media of one of the T75 flasks of 293T cells. Cells were cultured for 24h at 37° C., 5% CO2 in a humidified incubator.
Compounds were diluted (in a polypropylene round-bottomed 96 well plate) 1:3 in a twelve point dilution curve to give top [final] of either 25 μM, 3 μM, 1 μM or 500 nM. A control compound was included in every assay at a top concentration of 3 μM. Transfected cells were counted and diluted to 4×10^5 cells/mL in fresh media. 50 μL of transfection population 1 were added to all wells of the 96 well flat bottom white opaque assay plates. 100 μL diluted compound (2 rows per compound), control compound (one row) and controls (DMSO (0% inhibition, four wells), 3 μM positive control (100% inhibition, four wells) and media (transfection population 1 only, four wells) were added to the appropriate wells. 50 μL of the diluted (4×10^5 cells/mL) population 2 cells when then added to all wells, except the four wells of transfection population 1 only where an extra 50 μL of this cells population was added.
The plates were then incubated for 24 h at 37° C. and 5% CO2. After this time, 100 μL was removed from all wells and 60 μL of ONE-Glo™ (Promega) reagent, pre-equilibrated to room temperature, was added. Plates were then incubated for 3 min at room temperature before luminescence was read, using the ONE-Glo protocol, on the GloMax Explorer System (Promega) multimode reader. Analysis was carried out in Dotmatics software. All raw data were background subtracted (subtraction of mean 3 μM positive control value), before IC50 calculation.

MDR1 = assay: in vitro; type: in vitro ADME; settings: dog, MDCK-MDR1
Method: MDR1-MDCK cells obtained from the NIH (Rockville, Md., USA) are used between passage numbers 6-30. Cells are seeded onto Millipore Multiscreen Transwell plates at 3.4×10^5 cells/cm^2. The cells are cultured in DMEM and media is changed on day 3. On day 4 the permeability study is performed. Cell culture and assay incubations are carried out at 37° C. in an atmosphere of 5% CO2 with a relative humidity of 95%. On the day of the assay, the monolayers are prepared by rinsing both basolateral and apical surfaces twice with Hanks Balanced Salt Solution (HBSS) at the desired pH warmed to 37° C. Cells are then incubated with HBSS at the desired pH in both apical and basolateral compartments for 40 min to stabilise physiological parameters.
The dosing solutions are prepared by diluting test compound with assay buffer to give a final test compound concentration of 10 μM (final DMSO concentration of 1% v/v). The fluorescent integrity marker lucifer yellow is also included in the dosing solution. Analytical standards are prepared from test compound DMSO dilutions and transferred to buffer, maintaining a 1% v/v DMSO concentration.
For assessment of A-B permeability, HBSS is removed from the apical compartment and replaced with test compound dosing solution. The apical compartment insert is then placed into a companion plate containing fresh buffer (containing 1% v/v DMSO). For assessment of B-A permeability, FIBSS is removed from the companion plate and replaced with test compound dosing solution. Fresh buffer (containing 1% v/v DMSO) is added to the apical compartment insert, which is then placed into the companion plate. At 60 min the apical compartment inserts and the companion plates are separated and apical and basolateral samples diluted for analysis. Test compound permeability is assessed in duplicate. Compounds of known permeability characteristics are run as controls on each assay plate.
Test and control compounds are quantified by LC-MSMIS cassette analysis using an 8-point calibration with appropriate dilution of the samples. The starting concentration (C0) is determined from the dosing solution and the experimental recovery calculated from C0 and both apical and basolateral compartment concentrations. The integrity of the monolayer throughout the experiment is checked by monitoring lucifer yellow permeation using fluorimetric analysis. Lucifer yellow permeation is high if monolayers have been damaged.

T1 sequence (P03420 26-109): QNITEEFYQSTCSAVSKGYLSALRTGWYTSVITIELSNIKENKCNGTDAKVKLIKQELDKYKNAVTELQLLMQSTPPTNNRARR
T1 sequence (P03420 137-574): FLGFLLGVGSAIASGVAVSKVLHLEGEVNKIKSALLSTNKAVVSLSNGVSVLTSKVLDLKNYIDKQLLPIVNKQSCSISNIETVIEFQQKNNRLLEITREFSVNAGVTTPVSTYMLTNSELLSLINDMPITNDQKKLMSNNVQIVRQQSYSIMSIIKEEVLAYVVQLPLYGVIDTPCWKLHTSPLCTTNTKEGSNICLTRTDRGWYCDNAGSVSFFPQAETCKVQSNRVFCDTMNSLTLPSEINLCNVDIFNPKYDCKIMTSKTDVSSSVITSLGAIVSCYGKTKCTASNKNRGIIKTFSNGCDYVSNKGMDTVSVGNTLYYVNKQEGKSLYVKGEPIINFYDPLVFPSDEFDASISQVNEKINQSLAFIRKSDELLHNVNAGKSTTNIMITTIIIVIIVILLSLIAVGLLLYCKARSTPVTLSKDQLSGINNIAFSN

| SMILES | IC50 (RSV A2 VR-1540) [nM] | IC90 (RSV A2 VR-1540) [nM] | IC50 [1] [nM] | Papp A→B at 60 min, 10 μM (MDR1) [×10⁻⁶ cm/s] | Papp B→A at 60 min, 10 μM (MDR1) [×10⁻⁶ cm/s] |
| --- | --- | --- | --- | --- | --- |
| CS(=O)(=O)C1CN(CCCn2c(CN3C(=O)C4(CC4)c4ccc(F)cc43)nc3cc(Cl)ccc32)C1 [Compound 13, 1′-({5-Chloro-1-[3-(3-methanesulfonylazetidin-1-yl)propyl]-1H-1,3-benzodiazol-2-yl}methyl)-6′-fluoro-1′,2′-dihydrospiro[cyclopropane-1,3′-indole]-2′-one] | 4.5 | 41 | 10 |  |  |
| CS(=O)(=O)C1CCN(CCCn2c(CN3C(=O)C4(CC4)c4ccc(F)cc43)nc3cc(Cl)ccc32)C1 (stereo not shown) [Compound 14, 1′-({5-Chloro-1-[3-(3-methanesulfonylpyrrolidin-1-yl)propyl]-1H-1,3-benzodiazol-2-yl}methyl)-6′-fluoro-1′,2′-dihydrospiro[cyclopropane-1,3′-indole]-2′-one] | 3.5 | 34 | 18 | 4.8 | 68 |
| CCS(=O)(=O)CCNCCCn1c(CN2C(=O)C3(CC3)c3ccc(F)cc32)nc2cc(Cl)ccc21 [Compound 11, 1′-{[5-Chloro-1-(3-{[2-(ethanesulfonyl)ethyl]amino}propyl)-1H-1,3-benzodiazol-2-yl]methyl}-6′-fluoro-1′,2′-dihydrospiro[cyclopropane-1,3′-indole]-2′-one] | 5 | 41 | 24 |  |  |
| CS(=O)(=O)N1CCN(CCCn2c(CN3C(=O)C4(CC4)c4ccc(F)cc43)nc3cc(Cl)ccc32)CC1 [Compound 1, 1′-({5-Chloro-1-[3-(4-methanesulfonylpiperazin-1-yl)propyl]-1H-1,3-benzodiazol-2-yl}methyl)-6′-fluoro-1,2′-dihydrospiro[cyclopropane-1,3′-indole]-2′-one] | 5.9 | 50 | 19 |  |  |
| O=C1N(Cc2nc3cc(Cl)ccc3n2CCCN2CCS(=O)(=O)CC2)c2cc(F)ccc2C12CC2 [Compound 28, 4-{3-[5-Chloro-2-({6′-fluoro-2′-oxo-1′,2′-dihydrospiro[cyclopropane-1,3′-indole]-1′-yl}methyl)-1H-1,3-benzodiazol-1-yl]propyl}-1λ6-thiomorpholine-1,1-dione] | 9.5 | 48 | 115 |  |  |
| CC(C)[C@H](NCCCn1c(CN2C(=O)C3(CC3)c3ccc(F)cc32)nc2cc(Cl)ccc21)C(N)=O [Compound 12, (2S)-2-({3-[5-chloro-2-({6′-fluoro-2′-oxo-1′,2′-dihydrospiro[cyclopropane-1,3′-indole]-1′-yl}methyl)-1H-1,3-benzodiazol-1-yl]propyl}amino)-3-methylbutanamide] | 29 | 200 | 71 |  |  |
| CS(=O)(=O)CCNCCCn1c(CN2C(=O)C3(CC3)c3ccc(F)cc32)nc2cc(Cl)ccc21 [Compound 10, 1′-[(5-Chloro-1-{3-[(2-methanesulfonylethyl)amino]propyl}-1H-1,3-benzodiazol-2-yl)methyl]-6′-fluoro-1′,2′-dihydrospiro[cyclopropane-1,3′-indole]-2′-one] | 2.5 | 31 | 12 |  |  |
| CS(=O)(=O)C1CCN(CCCn2c(CN3C(=O)C4(CC4)c4ccc(F)cc43)nc3cc(Cl)ccc32)CC1 [Compound 20, 1′-({5-Chloro-1-[3-(4-methanesulfonylpiperidin-1-yl)propyl]-1H-1,3-benzodiazol-2-yl}methyl)-6′-fluoro-1′,2′-dihydrospiro[cyclopropane-1,3′-indole]-2′-one] | 5.9 | 7.5 | 12 | 1.6 | 61.3 |
| CS(=O)(=O)N1CCN(CCn2c(CN3C(=O)C4(CC4)c4ccc(F)cc43)nc3cc(Cl)ccc32)CC1 [Compound 9, 1′-({5-chloro-1-[2-(4-methanesulfonylpiperazin-1-yl)ethyl]-1H-1,3-benzodiazol-2-yl}methyl)-6′-fluoro-1′,2′-dihydrospiro[cyclopropan-1,3′-indole]-2′-one] | 4.2 | 28 | 15 |  |  |
| O=C1N(Cc2nc3cc(Cl)ccc3n2CCCN2CCOCC2)c2cc(F)ccc2C12CC2 [Compound 18, 1′-({5-Chloro-1-[3-(morpholin-4-yl)propyl]-1H-1,3-benzodiazol-2-yl}methyl)-6′-fluoro-1′,2′-dihydrospiro[cyclopropane-1,3′-indole]-2′-one] | 7.6 | 60 | 70 |  |  |
